We go through 1 compound from ChEMBL document CHEMBL4765429, “Discovery of methyl 3-((2-((1-(dimethylglycyl)-5-methoxyindolin-6-yl)amino)-5-(trifluoro-methyl) pyrimidin-4-yl)amino)thiophene-2-carboxylate as a potent and selective polo-like kinase 1 (PLK1) inhibitor for combating hepatocellular carcinoma” (Eur J Med Chem, 2020).

Data set [1] can be described thus: AUC (0 to infinity) in ICR mouse at 5 mg/kg, iv. The class given is ADME, organism-based. Set-up: route intravenous, time infinity, dose 5 mg/kg. As to conditions: in vivo.
Data set [2] can be described thus: Volume of distribution at steady state in ICR mouse at 5 mg/kg, iv. It counts as ADME, organism-based. As to conditions: in vivo, read-out: Vdss.
The nature of data set [3]: Metabolic stability in dog liver microsomes assessed as clearance. The class given is ADME, Canis lupus familiaris, Microsome. As to conditions: read-out: CLH.
A short description of data set [4]: Metabolic stability in rat liver microsomes assessed as clearance. The class given is ADME, Microsome. As to conditions: read-out: CLH. (Liver microsomes are vesicles of endoplasmic reticulum, rich in cytochrome P450 enzymes.)
The nature of data set [5]: Metabolic stability in monkey liver microsomes assessed as clearance. The class given is ADME, Macaca mulatta, Microsome. Conditions: rhesus monkey, read-out: CLH.
Data set [6] in a line: Metabolic stability in mouse liver microsomes assessed as clearance. It counts as ADME, Microsome. As to conditions: read-out: CLH.
Data set [7] in a line: Half life in ICR mouse at 5 mg/kg, iv. The class given is ADME, organism-based. As to conditions: in vivo.
Data set [8] in a line: Metabolic stability in human liver microsomes assessed as clearance. It counts as ADME, Microsome. Conditions: read-out: CLH.

With `COC(=O)c1sccc1Nc1nc(Nc2cc3c(cc2OC)CCN3C(=O)CN(C)C)ncc1C(F)(F)F`, in data set [1], the AUC(0-inf) (as a rule, the area under the concentration-time curve extrapolated to infinity) came to 776 ng·h/mL. In data set [2], the Vd was determined as 5.21 L/kg. The CLint scaled in data set [3] came out at 61.5 mL/min/kg; in data set [4] it was 91.3 mL/min/kg; in data set [5], 196 mL/min/kg; in data set [6], 331 mL/min/kg; in data set [8] it was 74.3 mL/min/kg. Besides, the half-life (commonly how long it takes for the measured level to halve) in data set [7] was 88.2 min.
